In brackets after ≈: the same amount, converted by molar mass. Where a name gives a salt, the structure may show the parent alone. Read-outs that look alike come from different tables or passages of the source. Values belong to the molecule of their own block, whether it stands above or below them.
Experiments:
[1] = Rat oral bioavailability of tipranavir disodium spray dried powders; assay type: in vivo; conditions: plasma, 20 mg/kg
Protocol: HPLC analysis of tipranavir in the rat plasma samples following administration of the various tipranavir disodium spray dried powders was conducted using an RP 8 column (Zorbax, DuPont) with a mobile phase consisting of methanolaqueous 0.05 M formate buffer, pH 4 ([…]).
The rat oral bioavailability of tipranavir disodium spray dried powders as well as the parent tipranavir disodium bulk drug were administered by intubation of the powders using a group of 7-8 rats (250-290 g) obtained from Taconic (Germantown, N.Y.). Intubation was achieved using a 10 cm (4 inch) section of Teflon tubing, […], containing a piece of cheese (American, fat free) inserted into the bottom of the tubing. The desired tipranavir disodium powdered bulk drug was placed into the tube and the tube was inserted into the stomach of the rat. The drug was displaced from the Teflon tubing and into the stomach by passing 2 ml of water through the tubing. The dose was 20 mg/kg in all cases.
The blood samples were processed with precipitation of the proteins with acetonitrile followed by centrifugation. The samples were assayed as described above.

[2] = Solubility; assay type: physicochemical; conditions: water, pH 6, water
[3] = Intrinsic dissolution rate of co-compressed pellets, fiber optic automated rotating disk dissolution method; assay type: physicochemical; conditions: for Percent dissolved in 60 minutes at pH 6: pH 6 (0.01 M phosphate) with 0.6% SLS
Protocol: The 0.48 cm ( 3/16 inch) HSS rod was inserted into the die to a distance of 1.9 cm (¾ inch), leaving 0.64 (¼ inch) for placement of 20±1 mg of the drug or drug mixture into the 0.48 cm ( 3/16 inch) diameter hole.
After adding the drug, the punch (or HSS rod) was inserted into the die and the entire die assembly was placed into a 3-bolt holder that was used to hold a 0.64 cm (¼ inch) SS base plate firmly against the powder bed during compression in the die. Compression of the powder was achieved on a Carver press using a stepwise increase in the force up to 4450 newtons (1000 pounds force) (i.e., 255 MPa (37000 psi)) and then a progressive decrease in pressure as described in the following. A force of 1110 newtons (250 pounds force) was applied for approximately 10 seconds and the pressure was removed. This was repeated at 2220 newtons (500 pounds force), 3330 newtons (750 pounds force), and 4450 newtons (1,000 pounds force). The 4450 newtons (1000 pounds force) (i.e., 255 MPa (37000 psi)) was applied again and maintained for 1 minute. The pressure was decreased stepwise by simply lowering the pressure and then holding it at 3330 newtons (750 pounds force) for 10 seconds and repeating this at 2220 newtons (500 pounds force), 1110 newtons (250 pounds force) and, finally, the pressure was removed.
The die and holder was removed from the Carver press and the punch (or HSS rod) was twisted to loosen the rod and to allow the pellet to relax or expand from the backside. After a three minute (minimum) relaxation period, the set-screw on the HSS rod was firmly secured to the die.
The entire punch and die assembly containing the drug pellet with one face of the drug pellet exposed was removed as a unit from the holder and the intrinsic dissolution rate was determined as described below.
The HSS rod in the die containing the drug compact with one face of the drug pellet exposed was attached to an electric motor with a fixed speed of 300 revolutions per minute (rpm). The die was rotated (300 rpm) while the die (containing the drug pellet) was lowered at t=0 into the center of the dissolution vessel consisting of a jacketed 800 mL beaker (Pyrex, No.1000) containing 500 mL of the desired de-gassed (house vacuum, 3 minutes) dissolution medium maintained at 37±0.5° C. The dissolution medium consisted of either dilute HCl (0.01, 0.001 or 0.0001 N HCl) or pH 6, 0.01 M phosphate containing 0.6% SLS (sodium lauryl sulfate). The die was positioned such that the drug compact was approximately 6.4 cm (2.5 inches) from the bottom of the 500 mL dissolution beaker and approximately the same distance from the liquid surface. Continuous monitoring by ultraviolet (UV) spectroscopy was conducted by the fiber optic UV automated dissolution method or samples were taken automatically by the HPLC sampling method as described below.
The Fiber Optic Dissolution System. The fiber optic UV automated dissolution system employed an Ocean Optics PC Model 1000 fiber optic spectrophotometer connected to a 120 mHz Pentium computer. The dissolution process was monitored continuously at 290 nm with the fiber optic probe with 5-10 data points taken per minute. The data was processed automatically with a Visual Basic application program that allowed the data to be collected automatically from the spectrophotometer.
The delavirdine mesylate intrinsic dissolution rate profile was plotted in Excel and the intrinsic dissolution rate was calculated automatically by the program. The dissolution period was usually 15 minutes, but could be as short as approximately 1 minute, or as long as a few hours.
Calculation of the Intrinsic Dissolution Rate.

- AUC(0-inf) ([1]; fasted, read-out: AUCInf, fasted): 23400 ng·h/mL
- AUC(0-inf) ([1]; fed, read-out: AUCInf, fed): 45800 ng·h/mL
Compound: CCC[C@@]1(CCc2ccccc2)CC(O)=C([C@H](CC)c2cccc(NS(=O)(=O)c3ccc(C(F)(F)F)cn3)c2)C(=O)O1 [Tipranavir Disodium bulk drug, tipranavir disodium]

- solubility [2]: 5 to 10 µg/mL (≈ 8.3 to 16.6 µM)
Compound: CCC[C@@]1(CCc2ccccc2)CC(O)=C([C@H](CC)c2cccc(NS(=O)(=O)c3ccc(C(F)(F)F)cn3)c2)C(=O)O1 [tipranavir]

- IDR, pH 2 0.01 N HCl ([3]; pH 2 0.01 N HCl, 37° C., 300 rpm, observed): 220 micrograms · cm^−2 · sec^−1
- Percent of pellet dissolved at pH 2 ([3]; pH 2 (0.01 N) HCl, 37° C., dissolution then stops): approximately 60%
- Percent dissolved in 60 minutes at pH 6 ([3]; 20 mg pellet, listed as Delavirdine mesylate alone): approximately 2%
- Percent dissolved in 60 minutes at pH 6 ([3]; 20 mg pellet, listed as pure delavirdine mesylate): less than 1%
- IDR, pH 6 with 0.5% SLS ([3]; pH 6 with 0.5% SLS, 37° C., 300 rpm, observed): 2 micrograms · cm^−2 · sec^−1
- Percent dissolved in less than 10 minutes at pH 6 ([3]; pH 6 with 0.6% SLS, less than 10 minutes, 20 mg pellet): less than 1%
Compound: CC(C)Nc1cccnc1N1CCN(C(=O)c2cc3cc(NS(C)(=O)=O)ccc3[nH]2)CC1 [Delavirdine Mesylate, delavirdine mesylate]

— patent US20050042291A1, “Diffusion layer modulated solids” (priority 2003, published 2005)
